Experimental data from patent US10260089B2, “Compositions and methods for recognition of RNA using triple helical peptide nucleic acids” (The Research Foundation for the State University of New York, priority 2012, dated 2019).
Where “and” joins values, the source holds several entries; their conditions need not be identical. Identical values can stand only once. Ends that are not written are not given here.

What was measured:
RNA hairpin HRP4 (U-A) = assay: ITC binding of PNA and GPNA to RNA hairpin HRP4 (Example 3); conditions: sodium acetate buffer (pH 5.5)
Experimental: (§1) Isothermal Titration calorimetry. In a typical ITC experiment, an RNA hairpin solution (0.95 mL, […]) in acetate buffer [100 mM sodium acetate and 1.0 mM EDTA (pH 5.5)] was titrated with a PNA solution (50×5 μL, […]) using a Nano ITC G2 (TA Instruments) calorimeter. For full experimental details and data, see the Supporting Information. The titration data were analyzed using NanoAnalyze (TA Instruments) using an independent model to obtain the fitting graph and thermodynamic binding data (Table 7).
(§2) Next the sequence selectivity of binding of GPNA1 to all four RNA hairpins having a variable central base pair [HRP1-HRP4 (FIGS. 6 and 10)] was checked.

RNA hairpin HRP3 (C-G) = assay: ITC binding of PNA and GPNA to RNA hairpin HRP3 (Example 3); conditions: sodium acetate buffer (pH 5.5)
Experimental: as §1, §2

RNA hairpin HRP2 (A-U) [1] = assay: ITC binding of PNA and GPNA to RNA hairpin HRP2 (Example 3); conditions: for -ΔG / -ΔH / -ΔS: acetate pH 5.5
Experimental: as §1
To gain more insight into different binding modes, guanidine-modified variants of hexamer CTCTTC (PNA4) were prepared and studied their binding to HRP2. […] While there was very little dependence on the number of modifications in the D series (entries 7-9), in the L series (entries 10-12) the affinity appeared to decrease somewhat with an increasing number of guanidine modifications.

DNA version of HRP1 = assay: ITC binding of GPNA to a DNA version of HRP1 (Example 3); conditions: acetate pH 5.5
Experimental: as §1
Binding of D-GPNA1 to the HRP1 hairpin, consistent with, made of deoxynucleotides (DNA version of HRP1) was weaker by ˜1 order of magnitude (cf., entries 2 and 4). In contrast, the affinity of L-GPNA1 for either the RNA or DNA hairpin was practically the same (cf., entries 3 and 5). Under physiologically relevant conditions [37° C., in 2 mM MgCl2, 90 mM KCl, 10 mM NaCl, and 50 mM potassium phosphate (pH 7.4)], no binding of D-GPNA1 to HRP1 was observed. The sequence of PNA3 was symmetric and thus provided optimal binding for formation of both a parallel triple helix and an antiparallel duplex, as required for triplex invasion (FIGS. 12A-12C).

RNA hairpin HRP1 (G-C) [2] = assay: ITC binding of PNA and GPNA to RNA hairpin HRP1 (Example 3); conditions: for Ka: 100 mM sodium acetate and 1.0 mM EDTA (pH 5.5); for -ΔG / -ΔH / -ΔS: acetate pH 5.5
Experimental: as §1
The guanidine-modified PNA oligomers [GPNA (FIG. 10)] were made using the standard Fmoc synthesis protocols on the Expedite 8909 synthesizer and purified by reverse-phase high-performance liquid chromatography. […] To allow direct comparison, the same GPNA sequences were prepared (FIG. 10), like the PNA used in previous study of triple-helix formation with double-helical RNA. The binding of GPNA to RNA hairpin (HRP1) was studied using isothermal titration calorimetry [ITC (FIG. 11)]. […] Formation of the complex was further confirmed using circular dichroism (CD) spectroscopy. […] Addition of 4.5 equiv (conditions mimicking the end point of ITC titration) of D-GPNA1 and L-GPNA1 to HRP1 induced a decrease in the magnitude of the CD signal at 240-250 nm, which was clearly visible in the difference spectra. However, a significant increase around 280 nm was not observed. […] Overall, the CD spectra confirmed the formation of GPNA-RNA complexes.

[3] = system: ribosomal A-site model RNA hairpin HRP5; assay: ITC binding to human ribosomal A-site model RNA hairpin HRP5 (Example 3); conditions: sodium acetate buffer (pH 5.5)
[4] = system: ribosomal A-site model RNA hairpin HRP6; assay: ITC binding to bacterial ribosomal A-site model RNA hairpin HRP6 (Example 3); design: species or system Mycobacterium tuberculosis; conditions: sodium acetate buffer (pH 5.5)
RNA hairpin HRP1 (G-C) [5] = assay: ITC binding of PNA and GPNA to RNA hairpin HRP1 (Example 3); conditions: 37° C., 2 mM MgCl2, 90 mM KCl, 10 mM NaCl, 50 mM potassium phosphate (pH 7.4)
RNA hairpin HRP2 (A-U) [6] = assay: ITC binding of PNA and GPNA to RNA hairpin HRP2 (Example 3); conditions: experiment of entry 13 repeated in acetate buffer at pH 7.3
[7] = cited from earlier work
[8] = 100 mM sodium acetate and 1.0 mM EDTA (pH 5.5)

Compound	Ka (RNA hairpin HRP2 (A-U) [1]; [8])	Average association constants Ka, H. Sapiens (HRP5) [3]	Average association constants Ka, M. tuberculosis (HRP6) [4] [M⁻¹]	-ΔG (RNA hairpin HRP2 (A-U) [1]) [kcal/mol]	-ΔH (RNA hairpin HRP2 (A-U) [1]) [kcal/mol]	-ΔS (RNA hairpin HRP2 (A-U) [1]) [eu]	also measured
NH2-CTL-ArgCCTL-ArgC [L-GPNA1]	800000 M⁻¹						Average association constants Ka, HRP4 (U-A) (RNA hairpin HRP4 (U-A)): 400000 M⁻¹; Average association constants Ka, HRP3 (C-G) (RNA hairpin HRP3 (C-G)): 600000 M⁻¹; -ΔG (DNA version of HRP1): 8.7 kcal/mol; -ΔH (DNA version of HRP1): 21.0 kcal/mol; -ΔS (DNA version of HRP1): 41 eu; Ka (DNA version of HRP1): 2.5e+06 M⁻¹; Ka (RNA hairpin HRP1 (G-C) [2]): 2.2 ± 1.6 ×10^6 M^−1 and 2.2 ×10^6 M^−1; -ΔG (RNA hairpin HRP1 (G-C) [2]): 8.6 ± 0.5 kcal/mol; -ΔH (RNA hairpin HRP1 (G-C) [2]): 24.2 ± 9.6 kcal/mol; -ΔS (RNA hairpin HRP1 (G-C) [2]): 53 ± 34 eu
NH2-CCCTPexCTT [PNA14]		NB[b] (No binding; Ka < 10^3 M^−1.)	2e+06				
NH2-CCCTGCTT [PNA10]		400000 M⁻¹	1.2e+06				
NH2-CCCTL-ArgGCTL-ArgT [GPNA10]		2.8e+06 M⁻¹	500000				
NH2-CTL-ArgCTL-ArgTL-ArgC [L-GPNA4]	500000 M⁻¹			7.8	61.6	181	
NH2-CTD-ArgCCTD-ArgC [D-GPNA1]	300000 M⁻¹						Average association constants Ka, HRP4 (U-A) (RNA hairpin HRP4 (U-A)): 1.3e+06 M⁻¹; binding to HRP1 under physiologically relevant conditions (RNA hairpin HRP1 (G-C) [5]): no binding; Average association constants Ka, HRP3 (C-G) (RNA hairpin HRP3 (C-G)): 700000 M⁻¹; -ΔG (DNA version of HRP1): 7.7 kcal/mol; -ΔH (DNA version of HRP1): 29.1 kcal/mol; -ΔS (DNA version of HRP1): 72 eu; Ka (DNA version of HRP1): 400000 M⁻¹; Ka (RNA hairpin HRP1 (G-C) [2]): 4.6 ± 1.6 ×10^6 M^−1 and 4.6 ×10^6 M^−1; -ΔG (RNA hairpin HRP1 (G-C) [2]): 9.1 ± 0.2 kcal/mol; -ΔH (RNA hairpin HRP1 (G-C) [2]): 27.3 ± 2.5 kcal/mol; -ΔS (RNA hairpin HRP1 (G-C) [2]): 61 ± 9 eu
NH2-CTTD-ArgCTC [D-GPNA5]	1.05e+07 M⁻¹			9.6	19.8	34	binding to HRP2 in acetate buffer at pH 7.3 (RNA hairpin HRP2 (A-U) [6]): no binding; Ka (RNA hairpin HRP2 (A-U) [1]; pH 5.5, antiparallel GPNA): ~10^7
NH2-CTD-ArgCTD-ArgTD-ArgC [D-GPNA4]	600000 M⁻¹			7.9	22.9	50	
NH2-CTD-ArgTD-ArgCTD-ArgC [D-GPNA7]	0.4 ± 0.01 ×10^6 M^−1			7.6 ± 0.0	25.8 ± 3.7	61 ± 13	
NH2-CTL-ArgCTTL-ArgC [L-GPNA3]	800000 M⁻¹			8.0	58.8	170	
NH2-CCTGCTT [PNA11]		40000 M⁻¹	200000				
NH2-CTCTL-ArgTC [L-GPNA2]	1.8e+06 M⁻¹			8.5	39.6	104	
NH2-CTD-ArgCTTD-ArgC [D-GPNA3]	500000 M⁻¹			7.8	41.8	114	
NH2-CTD-ArgTCTD-ArgC [D-GPNA6]	5e+06 M⁻¹			9.1	13.4	14	
NH2-CTL-ArgGCTT [GPNA12]		800000 M⁻¹	400000				
NH2-CTGCTT [PNA12]		60000 M⁻¹	200000				
NH2-CTL-ArgTL-ArgCTL-ArgC [L-GPNA7]	3.8 ± 0.1 ×10^6 M^−1			8.9 ± 0.3	13.0 ± 7.3	14 ± 25	
H-CCCTPCTT (cysteine pairing not given here) [PNA13]		NB[b] (No binding; Ka < 10^3 M^−1.)	1.5e+06				
NH2CTL-ArgGCTL-ArgT [GPNA13]		8.1e+06 M⁻¹	2.9e+06				
Nc1cc[nH]c(=O)n1 [cytosine]							pKa [7]: ~4.5
NH2-CTCTD-ArgTC [D-GPNA2]	500000 M⁻¹			7.8	70.0	209	
